The source of these data is article PMC7072606, “Discrimination of Naturally-Occurring 2-Arylbenzofurans as Cyclooxygenase-2 Inhibitors: Insights into the Binding Mode and Enzymatic Inhibitory Activity” (Biomolecules, 2020).

The test deals with T1, bovine COX-2 (Bos taurus, UniProt O62698).
T1 sequence (O62698 18-604): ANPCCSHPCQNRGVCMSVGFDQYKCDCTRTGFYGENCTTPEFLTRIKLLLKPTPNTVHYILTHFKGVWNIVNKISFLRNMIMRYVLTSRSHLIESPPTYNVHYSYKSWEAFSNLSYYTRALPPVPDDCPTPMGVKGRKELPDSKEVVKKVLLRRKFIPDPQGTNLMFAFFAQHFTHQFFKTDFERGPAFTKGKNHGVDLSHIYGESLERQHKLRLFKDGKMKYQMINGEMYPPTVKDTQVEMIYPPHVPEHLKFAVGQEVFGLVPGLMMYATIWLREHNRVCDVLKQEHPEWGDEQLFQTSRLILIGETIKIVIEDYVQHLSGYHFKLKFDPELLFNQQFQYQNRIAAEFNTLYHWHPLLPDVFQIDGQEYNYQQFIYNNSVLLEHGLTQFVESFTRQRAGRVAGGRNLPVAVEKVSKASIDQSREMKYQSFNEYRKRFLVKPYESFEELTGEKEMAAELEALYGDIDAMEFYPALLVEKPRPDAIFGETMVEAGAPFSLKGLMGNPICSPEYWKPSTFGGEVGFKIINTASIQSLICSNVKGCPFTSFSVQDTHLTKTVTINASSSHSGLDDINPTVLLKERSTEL
The test is described as follows: COX-2 inhibition assay, enzyme immunoassay (EIA) kit. As to conditions: in-vitro. The class given is biochemical. The procedure: The ability of selected compounds to inhibit bovine COX-2 was determined using an enzyme immunoassay (EIA) kit (Cayman Chemical Company, Ann Arbor, MI, USA), according to the reported method. The activity was expressed as half-maximal inhibitory concentrations, IC50 (in μM), obtained after non-linear regression, using the program GraphPad Prism version 5.00 (GraphPad Software, San Diego, CA, USA).

For the substance salvianolic acid B [Compound 51], the 50% inhibitory concentration (IC50) was determined as 10.5 µM.
